This is an account of results in ChEMBL document CHEMBL1201862, “PubChem BioAssay data set” (2004).

The source made the active and inactive calls.

One assay addresses T1, CAAX prenyl protease 2 (Saccharomyces cerevisiae S288c, UniProt Q03530).
T1 sequence (Q03530 whole entry): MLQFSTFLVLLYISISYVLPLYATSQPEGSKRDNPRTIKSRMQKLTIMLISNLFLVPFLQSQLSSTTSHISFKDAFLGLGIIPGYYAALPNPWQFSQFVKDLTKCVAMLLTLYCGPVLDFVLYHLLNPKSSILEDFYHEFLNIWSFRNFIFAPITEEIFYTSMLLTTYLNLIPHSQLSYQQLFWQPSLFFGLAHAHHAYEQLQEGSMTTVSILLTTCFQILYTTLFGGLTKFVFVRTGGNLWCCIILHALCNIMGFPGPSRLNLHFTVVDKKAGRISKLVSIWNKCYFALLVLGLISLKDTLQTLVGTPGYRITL
The format is biochemical.

The target in another assay is T2, Insulin-degrading enzyme (Homo sapiens, UniProt P14735).
T2 sequence (P14735 whole entry): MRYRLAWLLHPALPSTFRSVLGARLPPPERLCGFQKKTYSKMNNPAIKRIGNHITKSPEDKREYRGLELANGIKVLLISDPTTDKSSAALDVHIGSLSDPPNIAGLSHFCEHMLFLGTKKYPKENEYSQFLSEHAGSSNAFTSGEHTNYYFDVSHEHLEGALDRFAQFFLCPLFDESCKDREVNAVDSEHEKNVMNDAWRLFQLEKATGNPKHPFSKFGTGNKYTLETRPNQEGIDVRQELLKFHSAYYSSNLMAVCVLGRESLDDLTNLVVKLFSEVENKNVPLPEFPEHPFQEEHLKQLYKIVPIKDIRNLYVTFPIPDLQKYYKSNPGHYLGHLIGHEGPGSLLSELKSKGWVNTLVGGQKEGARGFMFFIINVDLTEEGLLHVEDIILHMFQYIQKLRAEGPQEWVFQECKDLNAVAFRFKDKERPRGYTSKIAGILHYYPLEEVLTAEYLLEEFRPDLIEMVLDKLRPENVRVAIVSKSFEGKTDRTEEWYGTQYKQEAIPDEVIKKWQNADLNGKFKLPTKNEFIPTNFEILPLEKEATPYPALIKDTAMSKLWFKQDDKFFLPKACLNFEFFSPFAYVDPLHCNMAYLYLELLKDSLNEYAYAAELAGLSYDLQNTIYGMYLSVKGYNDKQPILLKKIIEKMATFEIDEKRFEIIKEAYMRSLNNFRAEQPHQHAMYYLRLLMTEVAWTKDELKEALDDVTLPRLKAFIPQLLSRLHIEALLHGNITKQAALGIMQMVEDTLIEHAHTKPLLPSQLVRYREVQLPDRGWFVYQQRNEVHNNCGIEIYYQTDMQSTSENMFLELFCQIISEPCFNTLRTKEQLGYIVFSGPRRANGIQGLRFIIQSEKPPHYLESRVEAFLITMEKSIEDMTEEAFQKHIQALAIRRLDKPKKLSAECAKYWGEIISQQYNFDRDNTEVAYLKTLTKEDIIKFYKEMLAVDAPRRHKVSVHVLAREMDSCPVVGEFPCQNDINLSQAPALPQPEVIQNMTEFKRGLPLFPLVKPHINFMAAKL
As to the kind of experiment: cellular IDE activation of Abeta substrate cleavage – fluorescence polarization, HEK cells, dose response (AID 588439). The format is functional, cell-based. A general note: Fluorescence polarisation rises when a labelled molecule tumbles more slowly, as on binding a larger partner.

Assay [1] has as its target Serine/threonine-protein kinase pim-2 (Homo sapiens, UniProt Q9P1W9). It counts as functional.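 Note: value comes from a broad kinase panel profiling study in which PIM2 was one of the panel members.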
For a further assay, the target named is Aurora kinase B (Homo sapiens, UniProt Q96GD4). It counts as functional.
The target in assay [2] is Fibroblast growth factor receptor 3 (Homo sapiens, UniProt P22607). It counts as functional.
The target in assay [3] is Tyrosine-protein kinase Lck (Homo sapiens, UniProt P06239). The format is functional.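 Note: lck was assayed as one member of a kinase panel.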
In assay [4] the target is Receptor-type tyrosine-protein kinase FLT3 (Homo sapiens, UniProt P36888). The format is functional.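 Note: FLT3 was tested as one member of a kinome-wide kinase panel.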
A further assay has as its target T3, Caspase-3 (Homo sapiens, UniProt P42574).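 Note: Dose-response selectivity test against caspase-3 for candidate inhibitors of sentrin-specific proteases (SENPs).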
T3 sequence (P42574 whole entry): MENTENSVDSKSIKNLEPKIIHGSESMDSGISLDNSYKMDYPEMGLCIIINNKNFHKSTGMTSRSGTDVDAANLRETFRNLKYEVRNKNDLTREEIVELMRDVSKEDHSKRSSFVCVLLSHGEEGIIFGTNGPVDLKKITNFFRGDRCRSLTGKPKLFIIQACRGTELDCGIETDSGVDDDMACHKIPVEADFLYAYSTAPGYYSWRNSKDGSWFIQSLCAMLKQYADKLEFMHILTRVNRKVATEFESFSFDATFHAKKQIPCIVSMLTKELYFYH
The format is functional.

For assay [5], the target named is T4, Sentrin-specific protease 7 (Homo sapiens, UniProt Q9BQF6).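 Note: Luminescence-based dose-response confirmation of ultra-high-throughput screening hits, measuring inhibition of SENP7.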
T4 sequence (Q9BQF6 whole entry): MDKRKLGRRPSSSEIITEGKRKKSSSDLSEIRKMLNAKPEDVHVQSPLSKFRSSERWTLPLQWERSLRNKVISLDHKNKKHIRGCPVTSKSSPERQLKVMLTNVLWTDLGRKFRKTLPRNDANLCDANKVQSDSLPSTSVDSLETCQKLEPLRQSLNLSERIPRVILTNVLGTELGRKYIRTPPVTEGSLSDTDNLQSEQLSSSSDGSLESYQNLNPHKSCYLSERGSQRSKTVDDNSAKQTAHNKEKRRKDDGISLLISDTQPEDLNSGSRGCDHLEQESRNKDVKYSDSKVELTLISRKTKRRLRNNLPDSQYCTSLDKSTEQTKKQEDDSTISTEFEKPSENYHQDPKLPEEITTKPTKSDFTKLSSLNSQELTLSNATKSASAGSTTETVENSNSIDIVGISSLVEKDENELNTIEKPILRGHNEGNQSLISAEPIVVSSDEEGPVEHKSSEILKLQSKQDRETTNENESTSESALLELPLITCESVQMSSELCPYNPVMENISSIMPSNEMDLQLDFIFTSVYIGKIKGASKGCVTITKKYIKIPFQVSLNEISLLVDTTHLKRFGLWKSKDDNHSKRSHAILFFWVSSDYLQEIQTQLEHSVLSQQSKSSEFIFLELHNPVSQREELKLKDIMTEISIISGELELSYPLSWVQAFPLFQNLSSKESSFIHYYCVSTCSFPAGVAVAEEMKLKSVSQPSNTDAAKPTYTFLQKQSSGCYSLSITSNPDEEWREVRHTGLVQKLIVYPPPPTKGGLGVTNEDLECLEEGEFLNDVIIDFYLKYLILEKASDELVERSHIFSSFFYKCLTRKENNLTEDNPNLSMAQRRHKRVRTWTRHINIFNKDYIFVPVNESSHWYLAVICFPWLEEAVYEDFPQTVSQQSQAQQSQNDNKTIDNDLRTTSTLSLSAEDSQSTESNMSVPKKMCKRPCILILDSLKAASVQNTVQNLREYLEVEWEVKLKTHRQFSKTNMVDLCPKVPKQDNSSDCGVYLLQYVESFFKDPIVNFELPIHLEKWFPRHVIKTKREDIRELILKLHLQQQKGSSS
The format is functional.

Receptor-type tyrosine-protein kinase FLT3, sequence (P36888 whole entry): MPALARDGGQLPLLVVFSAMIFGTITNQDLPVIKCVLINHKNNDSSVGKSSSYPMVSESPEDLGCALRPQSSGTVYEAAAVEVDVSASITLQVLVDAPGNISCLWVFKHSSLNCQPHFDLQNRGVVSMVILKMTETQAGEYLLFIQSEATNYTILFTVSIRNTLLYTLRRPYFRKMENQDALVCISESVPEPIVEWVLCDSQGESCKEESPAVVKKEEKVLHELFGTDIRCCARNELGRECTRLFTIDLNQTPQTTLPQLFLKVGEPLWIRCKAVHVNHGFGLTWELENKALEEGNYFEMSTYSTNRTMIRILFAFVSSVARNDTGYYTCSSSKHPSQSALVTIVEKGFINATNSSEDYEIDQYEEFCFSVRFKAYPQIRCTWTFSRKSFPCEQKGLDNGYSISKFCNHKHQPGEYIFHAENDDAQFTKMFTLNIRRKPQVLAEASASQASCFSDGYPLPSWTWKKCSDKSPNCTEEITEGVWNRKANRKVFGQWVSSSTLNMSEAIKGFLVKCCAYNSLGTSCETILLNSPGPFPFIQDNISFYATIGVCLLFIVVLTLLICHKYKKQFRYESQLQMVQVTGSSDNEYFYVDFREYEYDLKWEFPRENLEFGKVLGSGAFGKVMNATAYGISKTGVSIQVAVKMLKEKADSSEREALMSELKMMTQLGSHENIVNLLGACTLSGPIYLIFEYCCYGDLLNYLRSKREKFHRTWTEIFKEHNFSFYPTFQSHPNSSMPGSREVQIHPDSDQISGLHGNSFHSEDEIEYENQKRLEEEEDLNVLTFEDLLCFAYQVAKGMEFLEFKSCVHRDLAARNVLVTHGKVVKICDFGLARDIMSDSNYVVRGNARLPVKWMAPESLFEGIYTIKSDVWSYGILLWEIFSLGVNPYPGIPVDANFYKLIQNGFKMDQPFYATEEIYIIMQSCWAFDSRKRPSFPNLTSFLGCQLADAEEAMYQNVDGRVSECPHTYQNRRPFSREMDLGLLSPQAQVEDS
Tyrosine-protein kinase Lck, sequence (P06239 whole entry): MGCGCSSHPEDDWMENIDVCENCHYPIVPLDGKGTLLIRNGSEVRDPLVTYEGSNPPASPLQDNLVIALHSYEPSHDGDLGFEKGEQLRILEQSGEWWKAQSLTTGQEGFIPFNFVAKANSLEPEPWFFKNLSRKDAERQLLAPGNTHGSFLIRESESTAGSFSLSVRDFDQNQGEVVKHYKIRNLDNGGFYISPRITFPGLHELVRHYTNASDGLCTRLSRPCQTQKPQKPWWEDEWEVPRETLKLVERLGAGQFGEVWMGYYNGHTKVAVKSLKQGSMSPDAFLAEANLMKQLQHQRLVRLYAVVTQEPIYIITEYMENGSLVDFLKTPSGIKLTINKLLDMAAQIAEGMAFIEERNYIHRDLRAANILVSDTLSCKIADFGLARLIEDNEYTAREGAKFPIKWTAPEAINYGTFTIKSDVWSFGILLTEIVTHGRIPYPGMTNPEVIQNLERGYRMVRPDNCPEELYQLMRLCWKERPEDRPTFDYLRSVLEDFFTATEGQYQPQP
Serine/threonine-protein kinase pim-2, sequence (Q9P1W9 whole entry): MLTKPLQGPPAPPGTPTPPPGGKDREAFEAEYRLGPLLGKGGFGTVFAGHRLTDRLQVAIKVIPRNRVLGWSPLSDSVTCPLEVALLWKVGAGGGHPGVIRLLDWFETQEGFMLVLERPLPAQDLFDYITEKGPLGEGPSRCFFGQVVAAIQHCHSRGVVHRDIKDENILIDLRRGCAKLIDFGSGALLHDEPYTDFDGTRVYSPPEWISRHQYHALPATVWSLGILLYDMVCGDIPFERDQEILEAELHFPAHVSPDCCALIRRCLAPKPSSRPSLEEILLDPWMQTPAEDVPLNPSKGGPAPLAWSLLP
Aurora kinase B, sequence (Q96GD4 whole entry): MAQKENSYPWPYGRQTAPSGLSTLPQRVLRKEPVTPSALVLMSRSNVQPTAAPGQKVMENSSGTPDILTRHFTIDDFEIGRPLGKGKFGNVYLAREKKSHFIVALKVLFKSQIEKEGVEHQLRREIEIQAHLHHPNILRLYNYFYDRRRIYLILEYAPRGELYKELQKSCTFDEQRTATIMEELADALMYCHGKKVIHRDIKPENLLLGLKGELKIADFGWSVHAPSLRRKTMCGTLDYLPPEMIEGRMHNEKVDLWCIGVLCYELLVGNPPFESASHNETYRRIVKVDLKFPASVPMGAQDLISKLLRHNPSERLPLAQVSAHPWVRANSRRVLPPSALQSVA
Fibroblast growth factor receptor 3, sequence (P22607 whole entry): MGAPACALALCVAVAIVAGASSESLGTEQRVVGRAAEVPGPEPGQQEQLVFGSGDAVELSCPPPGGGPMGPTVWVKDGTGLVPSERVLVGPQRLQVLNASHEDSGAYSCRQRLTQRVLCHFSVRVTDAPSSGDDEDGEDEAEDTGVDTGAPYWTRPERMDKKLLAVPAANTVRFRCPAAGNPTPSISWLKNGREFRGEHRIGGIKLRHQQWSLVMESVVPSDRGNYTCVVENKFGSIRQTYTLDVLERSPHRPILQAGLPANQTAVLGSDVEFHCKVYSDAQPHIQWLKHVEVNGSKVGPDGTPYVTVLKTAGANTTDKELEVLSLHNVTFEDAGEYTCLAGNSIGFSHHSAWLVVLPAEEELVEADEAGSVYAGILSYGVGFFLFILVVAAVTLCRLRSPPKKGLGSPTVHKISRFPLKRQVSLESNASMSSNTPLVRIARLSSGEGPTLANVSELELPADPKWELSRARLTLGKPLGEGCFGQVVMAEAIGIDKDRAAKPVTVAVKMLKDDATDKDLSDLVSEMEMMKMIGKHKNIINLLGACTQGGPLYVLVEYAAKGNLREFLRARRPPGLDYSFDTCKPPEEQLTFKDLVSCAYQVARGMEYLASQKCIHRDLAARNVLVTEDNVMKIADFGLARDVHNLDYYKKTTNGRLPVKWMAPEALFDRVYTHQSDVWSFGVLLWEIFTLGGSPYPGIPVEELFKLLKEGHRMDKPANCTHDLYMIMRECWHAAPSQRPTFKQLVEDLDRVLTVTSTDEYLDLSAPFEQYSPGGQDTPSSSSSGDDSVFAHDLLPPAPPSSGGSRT

As a reminder, the AC50 is the midpoint of the concentration-response curve, whichever way the signal moves. For orientation: EC50 means the concentration needed to bring the measured effect to its halfway point. Regarding `Cc1cc(N)c2cc(NC(=O)/C=C/c3ccccc3Cl)ccc2n1`, the AC50 at CAAX prenyl protease 2 is 6.78 µM (active). In addition, the EC50 at Insulin-degrading enzyme is > 54.7 µM (inactive).
One may read the Ki as the equilibrium dissociation constant of an inhibitor or competing ligand from its target. On to `CC(=NNC(=N)N)c1cc(NC(=O)NCCCCCCNC(=O)Nc2cc(C(C)=NNC(=N)N)cc(C(C)=NNC(=N)N)c2)cc(C(C)=NNC(=N)N)c1`, for which the Ki was 0.2 µM (active) in assay [1]; 1.26 µM (active) on Aurora kinase B; > 2 µM (inactive) in assay [2]; > 2.51 µM (inactive) in assay [3]; 2 µM (active) in [4].
One may read the IC50 as the midpoint of a concentration-inhibition curve. In the case of `CCC(C)NC(=O)c1c(N)n(CCCOC)c2nc3ccccc3nc12` (centres undefined), the IC50 was 6.15 µM (active) at Caspase-3 and 1.36 µM (active) in [5].
